The target in series [1] is T1, Ba/F3-FL-TYK2-P760L cells (Homo sapiens, UniProt P29597, P760L, cells depend on it).
T1 construct: BaF3-FL-T2P760L (nM)
The series is described as follows: Anti-proliferative assay, Ba/F3-FL-TYK2-P760L cells (Cell-Titer Glo). The format is cell-based. The following applies: 72 h, read-out: BaF3-FL-T2P760L IC50. The procedure, abridged: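 Compound exposure ran 72 h at 37 °C in 5% CO2 across nine 3-fold concentrations from a 20 μM top dose, added 24 h after seeding 2000 cells/well.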

Series [2] deals with pSTAT1. The series is described as follows: Phosphorylation inhibition of STAT in human whole blood, IFN-alpha stimulated (flow cytometry). The following applies: 20 min; human whole blood, IFN-alpha 20 mins, CD3 cells; read-out: IC50 on pSTAT1 inhibition in h WB. The format is cell-based. The procedure, abridged: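 Readout is pSTAT1 (Y701) in CD3-stained cells by flow cytometry, with IC50 derived from a 4-parameter logistic equation. Fresh human PBMC or fresh whole blood received a 20-min Universal Type I IFN-alpha stimulation before fixation and cold permeabilization.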
In general terms: A flow cytometer gives signals particle by particle.

Another series addresses T2, JAK1-JH2 domain (Homo sapiens, UniProt P23458).
T2 construct: IC50 on JH2 domain activity (nM)
The series is described as follows: Binding activity test for JH2 domain of JAK1 (Tb-antibody/tracer FRET). The procedure, abridged: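 FRET read-out after 60 min at 25° C plus overnight at 4° C; tracer displacement detected via Tb-labelled antibody on the JH2 domain. Dose-response used 11 points at 3-fold dilution.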

The nature of series [3]: Hepatocytes metabolic stability assay. It is filed as in vitro ADME. The following applies: cryopreserved hepatocytes, human hepatocytes, 1.0×10^6 cells/mL; for CLint scaled at 1 μM: read-out: Human hepatocyte Clint(liver); for half-life at 1 μM: read-out: Human hepatocyte stability T1/2. The procedure, abridged: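 Cryopreserved hepatocytes (1.0×10^6 cells/mL final) were incubated with test compound at 1 μM at 37 °C and sampled at 0, 15, 30, 60 and 120 min, with acetonitrile quench and LC-MS/MS. k came from log-linear % remaining versus time, giving T1/2 and CLint.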

The subject of series [4] is pSTAT1. The series is described as follows: Phosphorylation inhibition of STAT in human PBMC, IFN-alpha stimulated (flow cytometry). It is filed as cell-based. The following applies: 20 min; human PBMC, IFN-alpha 20 mins, CD3 cells; read-out: IC50 on pSTAT1 inhibition in hPBMC. On the procedure:
Phosphorylation Inhibition of STAT in Human PBMC and Human Whole Blood Testing:
The inhibitory potential of test articles in human PBMC and human whole blood assay was evaluated by the method of flow cytometry.
IFN-alpha will activate JAK1 and TYK2 kinase in T cells by binding to IFN receptors, and then lead to phosphorylation of STAT1 and STAT2. The phosphorylated STAT1 enter nuclear and promote transcription and expression of IFN-gamma. To evaluate the efficacy of TYK2i in T cells, freshly prepared human PBMC or freshly collected human whole blood will be stimulated with certain unit of human IFN-alpha (Universal Type I IFN(1MU), R&D, 11200-2) for 20 mins in incubator. After stimulation, fix cells with Phosflow™ Fix Buffer I (BD, 557870), and then collect fixed cells by centrifugation (500 g, 8 min). Wash cells once with pre-cooled PBS, and then permeabilize cells with cold Perm Buffer III buffer (BD, 558050) for 45 mins on ice. Collect cells by centrifugation (600 g, 8 min) and washed twice with cold PBS. Stain cells with anti-human CD3 (FITC Mouse Anti-Human CD3, BD, 555332) and anti-pSTAT1_Y701(Alexa Fluor 647 Mouse Anti-Stat1 (pY701), BD, 612597) antibodies. Detect pSTAT1 by flow cytometry (CytoFlex S) and analyze data with FlowJo and GraphPad Prism 8 software. IC50 values of test articles were determined using 4-parameter logistic equation.

Each structure is given as a SMILES string. Bounds are passed on as bounds.

T1 sequence (P29597 whole entry P760L): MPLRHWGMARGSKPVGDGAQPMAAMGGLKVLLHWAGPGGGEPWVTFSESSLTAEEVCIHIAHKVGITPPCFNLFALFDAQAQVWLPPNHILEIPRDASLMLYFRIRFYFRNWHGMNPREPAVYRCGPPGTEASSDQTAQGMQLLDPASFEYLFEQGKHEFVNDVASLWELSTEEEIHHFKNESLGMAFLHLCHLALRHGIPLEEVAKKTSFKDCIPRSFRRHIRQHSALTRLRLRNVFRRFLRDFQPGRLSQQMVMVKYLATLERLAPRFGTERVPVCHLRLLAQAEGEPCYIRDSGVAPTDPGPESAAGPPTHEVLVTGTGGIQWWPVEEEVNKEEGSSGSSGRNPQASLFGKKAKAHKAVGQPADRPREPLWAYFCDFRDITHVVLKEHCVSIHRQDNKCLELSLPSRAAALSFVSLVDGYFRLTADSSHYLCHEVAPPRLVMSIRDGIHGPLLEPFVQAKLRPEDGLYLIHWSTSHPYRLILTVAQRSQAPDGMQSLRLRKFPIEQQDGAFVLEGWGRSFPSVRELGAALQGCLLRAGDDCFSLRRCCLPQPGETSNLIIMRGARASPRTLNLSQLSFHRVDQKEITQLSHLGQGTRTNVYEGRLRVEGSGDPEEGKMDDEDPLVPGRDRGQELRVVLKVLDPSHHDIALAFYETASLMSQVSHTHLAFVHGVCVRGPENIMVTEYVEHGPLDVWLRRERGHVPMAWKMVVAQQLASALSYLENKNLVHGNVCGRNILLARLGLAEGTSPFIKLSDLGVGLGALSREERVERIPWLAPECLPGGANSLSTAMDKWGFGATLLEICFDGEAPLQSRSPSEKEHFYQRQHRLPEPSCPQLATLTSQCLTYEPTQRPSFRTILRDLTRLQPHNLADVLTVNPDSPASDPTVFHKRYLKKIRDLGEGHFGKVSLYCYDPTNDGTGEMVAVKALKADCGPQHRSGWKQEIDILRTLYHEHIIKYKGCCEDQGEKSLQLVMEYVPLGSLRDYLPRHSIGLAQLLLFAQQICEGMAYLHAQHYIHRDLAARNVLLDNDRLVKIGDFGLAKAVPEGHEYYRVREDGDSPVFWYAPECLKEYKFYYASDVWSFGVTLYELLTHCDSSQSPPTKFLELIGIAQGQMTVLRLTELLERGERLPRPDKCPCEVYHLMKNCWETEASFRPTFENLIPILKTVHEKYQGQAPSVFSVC
T2 sequence (P23458 583-855 limits assumed): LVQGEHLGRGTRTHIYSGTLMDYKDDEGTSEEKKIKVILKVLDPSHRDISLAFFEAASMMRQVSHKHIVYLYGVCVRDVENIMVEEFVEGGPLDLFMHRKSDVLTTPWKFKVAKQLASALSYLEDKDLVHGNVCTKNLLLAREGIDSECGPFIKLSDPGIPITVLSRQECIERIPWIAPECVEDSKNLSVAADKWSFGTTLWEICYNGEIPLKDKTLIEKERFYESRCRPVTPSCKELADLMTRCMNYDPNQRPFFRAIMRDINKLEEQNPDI

A word on the IC50: it is the concentration that gives 50% inhibition. `[2H]C([2H])([2H])NC(=O)c1cnc(NC(=O)C2CC2)cc1Nc1ccc2cnn(CC)c2c1OC` [Example 44, 6-(Cyclopropanecarboxamido)-4-((1-ethyl-7-methoxy-1H-indazol-6-yl)amino)-N-(methyl-d3)nicotinamide]: in series [1], the GI50 was determined as 56.2 nM. Moreover, the results for the IC50 with pSTAT1 [2], on JAK1-JH2 domain and with pSTAT1 [4] were 219 nM, 9.89 nM and 14.9 nM, respectively. For the same compound, the CLint scaled at 1 μM in series [3] was 43.1 mL/min/kg. For the same compound, in series [3], the half-life at 1 μM came out at 1.49 h.
As to `[2H]C([2H])([2H])NC(=O)c1cnc(NC(=O)C2CC2)cc1Nc1ccc2cnn(CC(F)(F)F)c2c1OC` [Example 129, 6-(Cyclopropanecarboxamido)-4-((7-methoxy-1-(2,2,2-trifluoroethyl)-1H-indazol-6-yl)amino)-N-(methyl-d3)nicotinamide], in series [1], the GI50 is 69.3 nM. Moreover, the IC50 is 395 nM with pSTAT1 [2] and 20.8 nM on JAK1-JH2 domain.
Regarding `[2H]C([2H])([2H])NC(=O)c1cnc(NC(=O)C2CC2)cc1Nc1ccn2ncc(C#N)c2c1OC` [Example 165, 4-((3-Cyano-4-methoxypyrazolo[1,5-a]pyridin-5-yl)amino)-6-(cyclopropanecarboxamido)-N-(methyl-d3)nicotinamide], the GI50 in series [1] is 98.2 nM. Moreover, the IC50 in the series on pSTAT1 [2] was found to be 284 nM. On JAK1-JH2 domain, the IC50 was 18.6 nM. Moreover, in series [3], the CLint scaled at 1 μM was less than 7.35 mL/min/kg and the half-life at 1 μM was greater than 4 h.
In the same order, the values of `[2H]C([2H])([2H])NC(=O)c1cnc(NC(=O)C2CC2)cc1Nc1ncc2cnn(CC)c2c1OC` [Example 262, 6-(Cyclopropanecarboxamido)-4-((1-ethyl-7-methoxy-1H-pyrazolo[4,3-c]pyridin-6-yl)amino)-N-(methyl-d3)nicotinamide] are 41.6 nM, 102 nM, 14.8 nM, 18.5 mL/min/kg and 1.59 h.
For the compound `[2H]C([2H])([2H])NC(=O)c1cnc(Nc2ccc(F)cn2)cc1Nc1nn(C)c2ccn(CC)c(=O)c12` [Example 139, 4-((5-Ethyl-1-methyl-4-oxo-4,5-dihydro-1H-pyrazolo[4,3-c]pyridin-3-yl)amino)-6-((5-fluoropyridin-2-yl)amino)-N-(methyl-d3)nicotinamide], the GI50 in series [1] turned out to be 33.1 nM. Also, the IC50 in the series with pSTAT1 [2] worked out at 1180 nM; on JAK1-JH2 domain, 12.4 nM; with pSTAT1 [4] it was 23.3 nM. Moreover, the CLint scaled at 1 μM in series [3] is less than 7.35 mL/min/kg. Besides, the half-life at 1 μM in series [3] is greater than 4 h.
